Measured values as given in the NIST ThermoML archive (doi:10.1021/acs.jced.6b00703).
Numbers after ± are expanded uncertainties.

Conditions: 101 kPa, Liquid, Drop weight

Row | SMILES | interfacial tension (289.15 K) | interfacial tension (303.15 K) | interfacial tension (313.15 K) | interfacial tension (323.15 K) | interfacial tension (333.15 K) | interfacial tension (283.15 K) | interfacial tension (293.15 K) | interfacial tension (290.15 K) | interfacial tension (292.15 K)
1 | O=C1CCCCC1 [cyclohexanone] + O | 4.43 ± 1 mN/m | 5.08 ± 1 mN/m | 5.05 ± 1 mN/m | 4.71 ± 1 mN/m | – | 4.78 ± 1 mN/m | 4.87 ± 1 mN/m | – | –
2 | CCCCOC(C)=O [butyl ethanoate] + O | 14.9 ± 1 mN/m | 15.2 ± 1 mN/m | 15.1 ± 1 mN/m | 14.3 ± 1 mN/m | – | 15.3 ± 1 mN/m | 15.3 ± 1 mN/m | 14.95 ± 1 mN/m | –
3 | CC1CCCCC1 [methylcyclohexane] + O | – | – | – | – | – | – | 51.4 ± 1.1 mN/m | – | –
4 | CCOCC [diethyl ether] + O | – | – | – | – | – | – | 9.03 ± 1 mN/m | – | –
5 | OC1CCCCC1 [cyclohexanol] + O | – | 4.17 ± 1 mN/m | 4.15 ± 1 mN/m | 3.97 ± 1 mN/m | 3.95 ± 1 mN/m | – | – | – | –
6 | Cc1ccccc1 [toluene] + O | – | 36 ± 1.1 mN/m | 35.3 ± 1.1 mN/m | 34 ± 1 mN/m | – | 36.1 ± 1.1 mN/m | 36.3 ± 1.1 mN/m | 35.8 ± 1.1 mN/m | –
7 | CCC(C)=O [butanone] + O | – | – | – | – | – | – | – | – | 0.92 ± 1 mN/m

Further lines, with some results ahead:

Row | interfacial tension (289.15 K) | interfacial tension (303.15 K) | interfacial tension (313.15 K) | interfacial tension (323.15 K) | interfacial tension (333.15 K) | SMILES | interfacial tension (283.15 K) | interfacial tension (293.15 K) | interfacial tension (290.15 K) | interfacial tension (292.15 K)
8 | 7.37 ± 1 mN/m | 7.19 ± 1 mN/m | 7.15 ± 1 mN/m | 6.99 ± 1 mN/m | – | CCOC(C)=O [ethyl acetate] + O | 7.61 ± 1 mN/m | 7.29 ± 1 mN/m | – | –
9 | 9.1 ± 1 mN/m | – | – | – | – | CCCCCCCCO [octan-1-ol] + O | – | – | – | –
